For 10 molecules, Ki results are on record in US9957263B2, “Bromodomain inhibitors” (AbbVie Inc., priority 2013, dated 2018).

For one test, the target named is BRD4 (BDII_E352-M457) (Homo sapiens (Human), UniProt O60885). Put plainly: TR-FRET bromodomain binding assay, BRD4 second bromodomain. To be noted: His-tagged BD2, Alexa647-labeled probe 30 nM. In outline: (§1)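 Affinity for each isolated His-tagged domain was measured as competition with a fluorescent Alexa647 BET-inhibitor probe in a TR-FRET format at pH 6.0, 1 h room temperature incubation. Ki values were calculated from fitted IC50s, probe Kd and probe level (100 nM BDI, 30 nM BDII).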
(In TR-FRET formats the signal depends on donor and acceptor labels being close together.)

The target in a further test is BRD4 (BDI_K57-E168) (Homo sapiens (Human), UniProt O60885). Kind of test: TR-FRET bromodomain binding assay, BRD4 first bromodomain. To be noted: His-tagged BD1, Alexa647-labeled probe 100 nM. In outline: as §1

By Ki is commonly meant the equilibrium dissociation constant of an inhibitor or competing ligand from its target. `Cn1cc(-c2cc(S(C)(=O)=O)ccc2Oc2ccc(F)cc2F)c2cc(CN3CCN(c4ccccn4)CC3)[nH]c2c1=O` [Example 132, 4-[2-(2,4-difluorophenoxy)-5-(methylsulfonyl)phenyl]-6-methyl-2-{[4-(pyridin-2-yl)piperazin-1-yl]methyl}-1,6-dihydro-7H-pyrrolo[2,3-c]pyridin-7-one]: the Ki amounted to 128 nM at BRD4 (BDII_E352-M457) and 26.9 nM on BRD4 (BDI_K57-E168).

As to `Cn1cc(-c2cc(S(C)(=O)=O)ccc2NC2CCN(S(=O)(=O)c3cccc(C#N)c3)CC2)c2cc[nH]c2c1=O` [Example 105, 3-[(4-{[2-(6-methyl-7-oxo-6,7-dihydro-1H-pyrrolo[2,3-c]pyridin-4-yl)-4-(methylsulfonyl)phenyl]amino}piperidin-1-yl)sulfonyl]benzonitrile], the Ki at BRD4 (BDII_E352-M457) came out at 17 nM; on BRD4 (BDI_K57-E168) it was 7.2 nM.

Regarding `CCS(=O)(=O)c1ccc(OC2CCCCC2)c(-c2cn(C)c(=O)c3[nH]c(-c4cnn(C5CCNCC5)c4)cc23)c1` [Example 149, 4-[2-(cyclohexyloxy)-5-(ethylsulfonyl)phenyl]-6-methyl-2-[1-(piperidin-4-yl)-1H-pyrazol-4-yl]-1,6-dihydro-7H-pyrrolo[2,3-c]pyridin-7-one], the Ki at BRD4 (BDII_E352-M457) stood at 0.669 nM; on BRD4 (BDI_K57-E168), 2.81 nM.

Turning to `Cn1cc(-c2cc(S(C)(=O)=O)ccc2Oc2cccc(C(=O)N3CCC(N4CCCC4)CC3)c2)c2cc[nH]c2c1=O` [Example 24, 6-methyl-4-[5-(methylsulfonyl)-2-(3-{[4-(pyrrolidin-1-yl)piperidin-1-yl]carbonyl}phenoxy)phenyl]-1,6-dihydro-7H-pyrrolo[2,3-c]pyridin-7-one], the Ki at BRD4 (BDII_E352-M457) turned out to be 12 nM; at BRD4 (BDI_K57-E168), 15 nM.

Take `CN1CCN(CC(=O)N2CCC(Nc3ccc(S(C)(=O)=O)cc3-c3cn(C)c(=O)c4[nH]ccc34)CC2)CC1` [Example 96, 6-methyl-4-[2-({1-[(4-methylpiperazin-1-yl)acetyl]piperidin-4-yl}amino)-5-(methylsulfonyl)phenyl]-1,6-dihydro-7H-pyrrolo[2,3-c]pyridin-7-one]: the values for the Ki at BRD4 (BDII_E352-M457) and at BRD4 (BDI_K57-E168) were 21 nM and 17 nM, respectively.

Take `Cn1cc(-c2cc(S(C)(=O)=O)ccc2Oc2cccc(NS(=O)(=O)c3ccc(F)cc3F)c2)c2cc[nH]c2c1=O` [Example 47, 2,4-difluoro-N-{3-[2-(6-methyl-7-oxo-6,7-dihydro-1H-pyrrolo[2,3-c]pyridin-4-yl)-4-(methylsulfonyl)phenoxy]phenyl}benzenesulfonamide]: the inhibitory constant (Ki) worked out at 2.7 nM on BRD4 (BDII_E352-M457) and 5.9 nM at BRD4 (BDI_K57-E168).

Take `COCC(=O)N1CCC(Nc2ccc(S(C)(=O)=O)cc2-c2cn(C)c(=O)c3[nH]ccc23)CC1` [Example 95, 4-[2-{[1-(methoxyacetyl)piperidin-4-yl]amino}-5-(methylsulfonyl)phenyl]-6-methyl-1,6-dihydro-7H-pyrrolo[2,3-c]pyridin-7-one]: the values for the Ki on BRD4 (BDII_E352-M457) and at BRD4 (BDI_K57-E168) were 16 nM and 22 nM, respectively.

On to `COCCOCC(=O)N1CCC(Nc2ccc(S(C)(=O)=O)cc2-c2cn(C)c(=O)c3[nH]ccc23)CC1` [Example 98, 4-[2-({1-[(2-methoxyethoxy)acetyl]piperidin-4-yl}amino)-5-(methylsulfonyl)phenyl]-6-methyl-1,6-dihydro-7H-pyrrolo[2,3-c]pyridin-7-one], for which the Ki on BRD4 (BDII_E352-M457) was 20 nM; at BRD4 (BDI_K57-E168), 14 nM.

On to `CN(C)CC(=O)N1CCC(Nc2ccc(S(C)(=O)=O)cc2-c2cn(C)c(=O)c3[nH]ccc23)CC1` [Example 85, 4-[2-({1-[(dimethylamino)acetyl]piperidin-4-yl}amino)-5-(methylsulfonyl)phenyl]-6-methyl-1,6-dihydro-7H-pyrrolo[2,3-c]pyridin-7-one], for which the Ki amounted to 60 nM at BRD4 (BDII_E352-M457) and 8 nM at BRD4 (BDI_K57-E168).

As to `CCS(=O)(=O)c1ccc(Oc2ccc(Cl)cc2CCCN2CCOCC2)c(-c2cn(C)c(=O)c3[nH]ccc23)c1` [Example 83, 4-[2-{4-chloro-2-[3-(morpholin-4-yl)propyl]phenoxy}-5-(ethylsulfonyl)phenyl]-6-methyl-1,6-dihydro-7H-pyrrolo[2,3-c]pyridin-7-one], the Ki at BRD4 (BDII_E352-M457) came out at 3.5 nM; on BRD4 (BDI_K57-E168), 5.3 nM.
